In ChEMBL document CHEMBL1201862, “PubChem BioAssay data set” (2004):
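Assay format: 96-well plates, 48-hour exposure. Abbreviation: GI50, concentration required for 50% inhibition of growth.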 Active and inactive are the calls of the source. Cut-off read from the data, not from the text of the source: active = GI50 up to about 1.1 µM and inactive = higher.

Tests used:
Assay in all cases: DTP human tumour cell line panel, 48 h
786-0 = test system: 786-0
A549 = test system: A549
ACHN = test system: ACHN
BT-549 = test system: BT-549
CCRF-CEM = test system: CCRF-CEM
COLO 205 = test system: COLO 205
DU-145 = test system: DU-145
HCC 2998 = test system: HCC 2998
HCT-116 = test system: HCT-116
HCT-15 = test system: HCT-15
HL-60 = test system: HL-60
HOP-62 = test system: HOP-62
HOP-92 = test system: HOP-92
HT-29 = test system: HT-29
Hs-578T = test system: Hs-578T
IGROV-1 = test system: IGROV-1
K562 = test system: K562
KM12 = test system: KM12
M14 = test system: M14
MCF7 = test system: MCF7
MDA-MB-231 = test system: MDA-MB-231
MDA-MB-435 = test system: MDA-MB-435
MDA-N = test system: MDA-N
MOLT-4 = test system: MOLT-4
Malme-3M = test system: Malme-3M
NCI-H226 = test system: NCI-H226
NCI-H23 = test system: NCI-H23
NCI-H460 = test system: NCI-H460
NCI-H522 = test system: NCI-H522
NCI/ADR-RES = test system: NCI/ADR-RES
OVCAR-3 = test system: OVCAR-3
OVCAR-4 = test system: OVCAR-4
OVCAR-5 = test system: OVCAR-5
OVCAR-8 = test system: OVCAR-8
PC-3 = test system: PC-3
RPMI-8226 = test system: RPMI-8226
RXF 393 = test system: RXF 393
SF-268 = test system: SF-268
SF-295 = test system: SF-295
SF-539 = test system: SF-539
SK-MEL-28 = test system: SK-MEL-28
SK-MEL-5 = test system: SK-MEL-5
SK-OV-3 = test system: SK-OV-3
SN12C = test system: SN12C
SNB-19 = test system: SNB-19
SNB-75 = test system: SNB-75
SR = test system: SR
SW-620 = test system: SW-620
T47D = test system: T47D
TK-10 = test system: TK-10
U-251 = test system: U-251
UACC-257 = test system: UACC-257
UACC-62 = test system: UACC-62

## O=c1cc(-c2ccccc2)[nH]c2ccc(S)cc12
786-0
  GI50: 79.8 µM (inactive)
A549
  GI50: 52.1 µM (inactive)
ACHN
  GI50: 30.2 µM (inactive)
BT-549
  GI50: 23.5 µM (inactive)
CCRF-CEM
  GI50: 22.1 µM (inactive)
COLO 205
  GI50: 38.3 µM (inactive)
DU-145
  GI50: 52.2 µM (inactive)
HCC 2998
  GI50: 21 µM (inactive)
HCT-116
  GI50: 24.4 µM (inactive)
HCT-15
  GI50: 16.8 µM
HL-60
  GI50: 35.7 µM (inactive)
HOP-62
  GI50: 70.3 µM (inactive)
HOP-92
  GI50: 35.8 µM (inactive)
HT-29
  GI50: 29 µM (inactive)
Hs-578T
  GI50: 26.2 µM (inactive)
IGROV-1
  GI50: 29.8 µM (inactive)
K562
  GI50: 21.9 µM (inactive)
KM12
  GI50: 28.8 µM (inactive)
M14
  GI50: 25.9 µM (inactive)
MCF7
  GI50: 24.2 µM (inactive)
MDA-MB-231
  GI50: 65.2 µM (inactive)
MDA-MB-435
  GI50: 21.4 µM (inactive)
MDA-N
  GI50: > 10 µM (inactive)
MOLT-4
  GI50: 14.3 µM (inactive)
Malme-3M
  GI50: 27.5 µM (inactive)
NCI-H226
  GI50: 16.1 µM (inactive)
NCI-H23
  GI50: 33.9 µM (inactive)
NCI-H460
  GI50: 31.8 µM (inactive)
NCI-H522
  GI50: 21.7 µM (inactive)
NCI/ADR-RES
  GI50: 24.9 µM (inactive)
OVCAR-3
  GI50: 28.6 µM (inactive)
OVCAR-4
  GI50: 57.1 µM (inactive)
OVCAR-5
  GI50: 86.3 µM (inactive)
OVCAR-8
  GI50: 31.7 µM (inactive)
PC-3
  GI50: 20.6 µM (inactive)
RPMI-8226
  GI50: 44.2 µM (inactive)
RXF 393
  GI50: 31.5 µM (inactive)
SF-268
  GI50: 41.9 µM (inactive)
SF-295
  GI50: 38.5 µM (inactive)
SF-539
  GI50: 72.3 µM (inactive)
SK-MEL-28
  GI50: 28.8 µM (inactive)
SK-MEL-5
  GI50: 15.5 µM (inactive)
SK-OV-3
  GI50: 23.7 µM (inactive)
SN12C
  GI50: 18.3 µM (inactive)
SNB-19
  GI50: 64.4 µM (inactive)
SNB-75
  GI50: 24.6 µM (inactive)
SR
  GI50: 30.8 µM (inactive)
SW-620
  GI50: 38.7 µM (inactive)
T47D
  GI50: 15.1 µM (inactive)
TK-10
  GI50: 33.9 µM (inactive)
U-251
  GI50: 26.1 µM (inactive)
UACC-257
  GI50: 42.5 µM (inactive)
UACC-62
  GI50: 17.2 µM (inactive)
